{
  "source": "ChEMBL document CHEMBL1201862",
  "about": "“PubChem BioAssay data set” (2004)",
  "key": {"[1]": {"assay": "Luminescence Cell-Based Dose Response HTS to Identify Activators of Luciferase Translation or Activity in H4 […] Cells. [Related pubchem assays: 1829 (Project Summary), 1814 (Primary HTS)]", "assay_type": "functional"}, "[2]": {"target": "Glycogen synthase kinase-3 beta (Homo sapiens, UniProt P49841)", "assay": "Inhibition of Human GSK-3 beta Activity Measured in Biochemical System Using Microfluidics - 2063-05_Inhibitor_Dose_DryPowder_Activity_Set2. [Related pubchem assays (depositor defined):AID2709]"}, "[3]": {"assay": "Luminescence Cell-Based Dose Confirmation to Identify Activators of 5'UTR Stem-Loop Driven Alpha-Synuclein mRNA Translation in H4 Neuroglioblastoma Cells. [Related pubchem assays: 1829 (Project Summary), 1814 (Primary HTS)]", "assay_type": "functional"}, "[4]": {"assay": "Luminescence Cell-Based Dose Response to Identify Activators of Luciferase Translation or Activity in H4-C Neuroglioblastoma Cells. [Related pubchem assays: 1829 (Project Summary), 1814 (Primary HTS)]", "assay_type": "functional"}, "[5]": {"assay": "Luminescence Cell-Based Dose Confirmation HTS to Identify Activators of 5'UTR Stem-Loop Driven Alpha-Synuclein mRNA Translation in H4 Neuroglioblastoma Cells. [Related pubchem assays: 1829 (Project Summary), 1814 (Primary HTS)]", "assay_type": "functional"}, "[6]": {"assay": "Luminescence Cell-Based Dose Response to Identify Activators of 5'UTR Stem-Loop Driven Prion Protein mRNA Translation in H4-C Neuroglioblastoma Cells. [Related pubchem assays: 1829 (Project Summary), 1814 (Primary HTS)]", "assay_type": "functional"}, "[7]": {"test_system": "H4", "assay": "Luminescence Cell-Based Dose Response HTS to Identify Activators of 5'UTR Stem-Loop Driven Prion Protein mRNA Translation in H4 Neuroglioblastoma Cells. [Related pubchem assays: 1829 (Project Summary), 1814 (Primary HTS)]", "assay_type": "functional", "conditions": "Homo sapiens"}, "[8]": {"target": "Glycogen synthase kinase-3 alpha (Homo sapiens, UniProt P49840)", "assay": "Inhibition of Human GSK-3 alpha Activity Measured in Biochemical System Using Microfluidics - 2063-06_Inhibitor_Dose_DryPowder_Activity_Set2. [Related pubchem assays (depositor defined):AID2709]"}, "[9]": {"target": "Cyclin-dependent kinase 5/CDK5 activator 1 (Homo sapiens, UniProt Q00535)", "assay": "human CDK5 activity blockade – biochemical, microfluidic mobility shift, dry powder, selectivity assay for GSK-3 alpha inhibitor project, dose response (AID 588430)"}, "[10]": {"target": "T1, Insulin-degrading enzyme (Homo sapiens, UniProt P14735)", "T1 sequence (P14735 whole entry)": "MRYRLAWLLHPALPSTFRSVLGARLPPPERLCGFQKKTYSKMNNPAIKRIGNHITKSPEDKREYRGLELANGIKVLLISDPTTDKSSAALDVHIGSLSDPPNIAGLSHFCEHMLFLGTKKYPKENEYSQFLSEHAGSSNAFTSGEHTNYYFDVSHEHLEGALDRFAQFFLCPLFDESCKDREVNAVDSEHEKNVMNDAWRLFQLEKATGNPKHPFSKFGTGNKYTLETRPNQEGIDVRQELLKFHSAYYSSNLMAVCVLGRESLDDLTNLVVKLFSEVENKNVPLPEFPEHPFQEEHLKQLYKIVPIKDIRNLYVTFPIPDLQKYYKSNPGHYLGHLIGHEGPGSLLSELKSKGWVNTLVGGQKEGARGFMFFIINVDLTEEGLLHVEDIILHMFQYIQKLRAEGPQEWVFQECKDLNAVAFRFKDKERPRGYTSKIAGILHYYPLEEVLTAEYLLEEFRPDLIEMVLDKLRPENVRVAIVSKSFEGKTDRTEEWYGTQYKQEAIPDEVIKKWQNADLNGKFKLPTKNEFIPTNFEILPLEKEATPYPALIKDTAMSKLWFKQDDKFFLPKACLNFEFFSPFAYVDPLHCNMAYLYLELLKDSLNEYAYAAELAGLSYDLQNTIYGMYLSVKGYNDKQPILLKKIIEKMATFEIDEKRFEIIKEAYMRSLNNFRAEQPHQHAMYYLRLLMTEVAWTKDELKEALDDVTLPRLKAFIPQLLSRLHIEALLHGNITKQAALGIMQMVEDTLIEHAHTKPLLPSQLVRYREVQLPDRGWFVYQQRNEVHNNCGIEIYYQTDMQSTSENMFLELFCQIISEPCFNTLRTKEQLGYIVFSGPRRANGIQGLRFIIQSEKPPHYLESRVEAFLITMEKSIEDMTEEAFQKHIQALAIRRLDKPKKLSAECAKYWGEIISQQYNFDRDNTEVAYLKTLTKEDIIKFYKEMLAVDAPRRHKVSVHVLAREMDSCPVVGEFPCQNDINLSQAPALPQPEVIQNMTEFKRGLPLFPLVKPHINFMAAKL", "assay": "cellular IDE activation of Abeta substrate cleavage – fluorescence polarization, HEK cells, dose response (AID 588439)", "assay_type": "functional, cell-based"}, "[11]": {"test_system": "HEK293", "assay": "membrane integrity loss in HEK cells – cell-based, fluorescence, cytotoxicity control for IDE activator project, dose response (AID 588440);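 further: cytotoxicity by LDH release measuring loss of membrane integrity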", "assay_type": "functional", "conditions": "Homo sapiens"}, "[12]": {"test_system": "HEK293", "assay": "optical interference in Abeta FP readout, dose response, artefact control for IDE activator project, biochemical, fluorescence polarization (AID 588442)", "assay_type": "functional, cell-based", "conditions": "Homo sapiens"}, "[13]": {"target": "T1, Insulin-degrading enzyme", "assay": "recombinant IDE activation, cell-free – biochemical, fluorescence polarization, counter-screen for IDE activator project, dose response (AID 588681)"}, "[14]": {"target": "DNA dC->dU-editing enzyme APOBEC-3G (Homo sapiens, UniProt Q9HC16)", "sequence (Q9HC16 whole entry)": "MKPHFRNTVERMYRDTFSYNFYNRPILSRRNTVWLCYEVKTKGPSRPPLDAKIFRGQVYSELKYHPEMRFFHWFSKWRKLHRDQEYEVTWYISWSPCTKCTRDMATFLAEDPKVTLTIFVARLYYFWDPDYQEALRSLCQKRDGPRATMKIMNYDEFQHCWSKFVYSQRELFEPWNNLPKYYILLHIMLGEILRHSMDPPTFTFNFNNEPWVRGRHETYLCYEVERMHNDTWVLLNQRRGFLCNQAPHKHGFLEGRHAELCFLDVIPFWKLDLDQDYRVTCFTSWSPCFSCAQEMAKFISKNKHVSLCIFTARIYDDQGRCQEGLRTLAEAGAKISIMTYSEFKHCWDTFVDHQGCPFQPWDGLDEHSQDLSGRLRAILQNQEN", "assay": "inhibition of APOBEC3G ssDNA deamination – biochemical, fluorescence, single-stranded DNA substrate, SAR follow-up (AID 602136)", "assay_type": "functional", "conditions": "read-out: IC50_Mean"}, "[15]": {"target": "DNA dC->dU-editing enzyme APOBEC-3A (Homo sapiens, UniProt P31941)", "assay": "SAR analysis of small molecule inhibitors of APOBEC3A DNA Deaminase via a fluorescence-based single-stranded DNA deaminase assay.", "assay_type": "functional", "conditions": "read-out: IC50_Mean"}, "[16]": {"target": "Cytochrome P450 2C19 (Homo sapiens, UniProt P33261)", "assay": "Cytochrome panel assay with activity outcomes. Panel member name: p450-cyp2c19 Compounds with AC50 equal or less than 10 uM are considered active", "assay_type": "functional", "conditions": "read-out: AC50"}, "[17]": {"target": "Cytochrome P450 2C9 (Homo sapiens, UniProt P11712)", "sequence (P11712 whole entry)": "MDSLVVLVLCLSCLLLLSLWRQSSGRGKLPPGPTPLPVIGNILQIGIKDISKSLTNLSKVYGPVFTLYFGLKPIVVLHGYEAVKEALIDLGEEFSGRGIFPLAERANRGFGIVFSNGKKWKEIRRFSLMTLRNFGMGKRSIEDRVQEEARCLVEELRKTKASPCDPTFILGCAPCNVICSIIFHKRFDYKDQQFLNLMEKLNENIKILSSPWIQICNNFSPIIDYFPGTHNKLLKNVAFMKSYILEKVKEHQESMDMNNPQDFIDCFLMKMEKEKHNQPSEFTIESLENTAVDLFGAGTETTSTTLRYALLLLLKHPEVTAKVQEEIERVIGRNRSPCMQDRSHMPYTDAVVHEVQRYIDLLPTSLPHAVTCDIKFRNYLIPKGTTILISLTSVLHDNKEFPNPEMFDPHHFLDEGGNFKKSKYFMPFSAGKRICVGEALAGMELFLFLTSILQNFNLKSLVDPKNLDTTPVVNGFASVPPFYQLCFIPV"}, "[18]": {"target": "Sphingosine 1-phosphate receptor 4 (Homo sapiens, UniProt O95977)", "sequence (O95977 whole entry)": "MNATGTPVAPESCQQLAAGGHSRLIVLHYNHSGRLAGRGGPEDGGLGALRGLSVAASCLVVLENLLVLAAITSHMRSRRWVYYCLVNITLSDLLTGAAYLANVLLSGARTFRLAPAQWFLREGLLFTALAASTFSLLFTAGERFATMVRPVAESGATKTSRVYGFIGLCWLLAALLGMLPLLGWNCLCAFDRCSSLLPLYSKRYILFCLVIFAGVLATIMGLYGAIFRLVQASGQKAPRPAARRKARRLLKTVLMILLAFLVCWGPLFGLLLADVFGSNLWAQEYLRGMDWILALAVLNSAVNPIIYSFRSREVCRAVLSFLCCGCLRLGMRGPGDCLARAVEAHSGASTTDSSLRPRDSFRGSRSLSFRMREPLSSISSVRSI", "assay": "Late-stage fluorescence-based dose-response cell-based counterscreen assay to identify agonists of the Sphingosine 1-Phosphate Receptor 3 (S1P3): Sphingosine 1-Phosphate Receptor 4 (S1P4) agonist assay.", "assay_type": "functional"}, "[19]": {"target": "Sphingosine 1-phosphate receptor 2 (Homo sapiens, UniProt O95136)", "assay": "Late-stage fluorescence-based dose-response cell-based counterscreen assay to identify agonists of the Sphingosine 1-Phosphate Receptor 3 (S1P3): Sphingosine 1-Phosphate Receptor 2 (S1P2) agonist assay.", "assay_type": "functional"}, "[20]": {"target": "High affinity nerve growth factor receptor (Homo sapiens, UniProt P04629)", "sequence (P04629 whole entry)": "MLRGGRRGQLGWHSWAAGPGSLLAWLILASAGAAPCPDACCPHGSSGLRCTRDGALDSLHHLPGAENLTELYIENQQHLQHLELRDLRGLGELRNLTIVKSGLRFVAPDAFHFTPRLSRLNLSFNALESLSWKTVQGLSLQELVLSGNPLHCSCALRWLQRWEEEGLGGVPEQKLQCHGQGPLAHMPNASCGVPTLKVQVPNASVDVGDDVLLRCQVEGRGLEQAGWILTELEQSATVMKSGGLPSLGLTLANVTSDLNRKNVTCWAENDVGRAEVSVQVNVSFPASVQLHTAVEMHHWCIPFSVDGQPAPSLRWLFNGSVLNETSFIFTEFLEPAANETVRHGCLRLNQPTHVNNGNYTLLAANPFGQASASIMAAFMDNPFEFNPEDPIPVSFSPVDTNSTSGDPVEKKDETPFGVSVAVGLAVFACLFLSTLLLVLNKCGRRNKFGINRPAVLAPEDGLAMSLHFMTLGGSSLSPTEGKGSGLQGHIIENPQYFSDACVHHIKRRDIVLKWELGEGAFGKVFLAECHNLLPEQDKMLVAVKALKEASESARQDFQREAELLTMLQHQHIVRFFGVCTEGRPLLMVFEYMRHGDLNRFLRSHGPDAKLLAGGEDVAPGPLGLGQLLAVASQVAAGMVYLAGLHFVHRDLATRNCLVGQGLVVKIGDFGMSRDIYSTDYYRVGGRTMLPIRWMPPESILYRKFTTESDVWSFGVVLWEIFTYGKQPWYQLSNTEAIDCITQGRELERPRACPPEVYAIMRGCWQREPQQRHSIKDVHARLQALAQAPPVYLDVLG", "assay_type": "functional"}, "[21]": {"target": "Tyrosine-protein kinase Lck (Homo sapiens, UniProt P06239)", "assay_type": "functional"}, "[22]": {"target": "Serine/threonine-protein kinase TAO1 (Homo sapiens, UniProt Q7L7X3)", "assay_type": "functional"}, "[23]": {"target": "Aurora kinase B (Homo sapiens, UniProt Q96GD4)", "sequence (Q96GD4 whole entry)": "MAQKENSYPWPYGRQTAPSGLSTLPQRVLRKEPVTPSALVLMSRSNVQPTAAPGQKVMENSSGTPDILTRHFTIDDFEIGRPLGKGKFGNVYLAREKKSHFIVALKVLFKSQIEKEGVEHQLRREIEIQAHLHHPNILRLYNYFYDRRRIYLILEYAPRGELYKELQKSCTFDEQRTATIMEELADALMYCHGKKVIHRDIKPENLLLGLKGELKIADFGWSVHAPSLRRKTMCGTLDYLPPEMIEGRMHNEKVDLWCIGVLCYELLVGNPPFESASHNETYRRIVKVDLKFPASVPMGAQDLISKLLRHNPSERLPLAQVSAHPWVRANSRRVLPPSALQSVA", "assay_type": "functional"}, "[24]": {"target": "BDNF/NT-3 growth factors receptor (Homo sapiens, UniProt Q16620)", "sequence (Q16620 whole entry)": "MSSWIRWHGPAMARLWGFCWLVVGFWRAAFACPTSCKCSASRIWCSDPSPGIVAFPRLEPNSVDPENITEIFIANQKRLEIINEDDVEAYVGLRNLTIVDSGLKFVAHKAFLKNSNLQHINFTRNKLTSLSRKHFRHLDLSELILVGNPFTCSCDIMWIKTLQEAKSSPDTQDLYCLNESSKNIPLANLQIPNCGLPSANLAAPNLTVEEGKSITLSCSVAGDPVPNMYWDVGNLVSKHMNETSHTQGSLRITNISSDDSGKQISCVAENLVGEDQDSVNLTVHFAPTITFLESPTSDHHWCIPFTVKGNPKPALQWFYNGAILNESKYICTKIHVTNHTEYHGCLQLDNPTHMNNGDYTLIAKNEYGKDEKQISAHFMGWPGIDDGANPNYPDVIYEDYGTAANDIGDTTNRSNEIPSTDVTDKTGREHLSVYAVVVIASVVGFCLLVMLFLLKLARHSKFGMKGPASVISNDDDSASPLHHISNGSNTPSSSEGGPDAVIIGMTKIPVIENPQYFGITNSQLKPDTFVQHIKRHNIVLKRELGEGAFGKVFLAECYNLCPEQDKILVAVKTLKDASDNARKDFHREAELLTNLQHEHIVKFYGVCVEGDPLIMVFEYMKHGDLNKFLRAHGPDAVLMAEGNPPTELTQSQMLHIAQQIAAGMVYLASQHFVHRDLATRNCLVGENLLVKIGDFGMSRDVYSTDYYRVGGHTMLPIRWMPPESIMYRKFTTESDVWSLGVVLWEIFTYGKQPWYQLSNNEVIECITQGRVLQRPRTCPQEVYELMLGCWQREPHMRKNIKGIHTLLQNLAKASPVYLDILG", "assay_type": "functional"}, "[25]": {"target": "Cyclin-dependent kinase 8 (Homo sapiens, UniProt P49336)", "sequence (P49336 whole entry)": "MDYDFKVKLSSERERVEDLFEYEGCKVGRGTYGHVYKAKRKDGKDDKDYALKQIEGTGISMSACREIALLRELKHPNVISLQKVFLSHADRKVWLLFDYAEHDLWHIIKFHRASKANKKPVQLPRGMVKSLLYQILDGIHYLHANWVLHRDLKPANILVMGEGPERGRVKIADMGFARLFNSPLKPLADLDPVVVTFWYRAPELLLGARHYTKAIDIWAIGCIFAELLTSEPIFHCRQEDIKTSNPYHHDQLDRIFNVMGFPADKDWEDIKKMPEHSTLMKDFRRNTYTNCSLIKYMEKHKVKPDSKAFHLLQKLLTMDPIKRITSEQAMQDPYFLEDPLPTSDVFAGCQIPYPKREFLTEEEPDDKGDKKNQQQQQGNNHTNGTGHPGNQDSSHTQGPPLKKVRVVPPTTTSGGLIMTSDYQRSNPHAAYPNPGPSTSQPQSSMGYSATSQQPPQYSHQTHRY", "assay": "Navigating the Kinome. Panel member name: CDK8", "assay_type": "functional"}, "[26]": {"target": "ALK tyrosine kinase receptor (Homo sapiens, UniProt Q9UM73)", "assay_type": "functional"}, "[27]": {"target": "Calcium/calmodulin-dependent protein kinase type II subunit alpha (Homo sapiens, UniProt Q9UQM7)", "assay": "Navigating the Kinome. Panel member name: CAMK2A", "assay_type": "functional"}, "[28]": {"target": "Dual specificity protein kinase CLK4 (Homo sapiens, UniProt Q9HAZ1)", "assay_type": "functional"}, "[29]": {"target": "Rho-associated protein kinase 1 (Homo sapiens, UniProt Q13464)", "assay_type": "functional"}, "[30]": {"target": "Tyrosine-protein kinase Fyn (Homo sapiens, UniProt P06241)", "sequence (P06241 whole entry)": "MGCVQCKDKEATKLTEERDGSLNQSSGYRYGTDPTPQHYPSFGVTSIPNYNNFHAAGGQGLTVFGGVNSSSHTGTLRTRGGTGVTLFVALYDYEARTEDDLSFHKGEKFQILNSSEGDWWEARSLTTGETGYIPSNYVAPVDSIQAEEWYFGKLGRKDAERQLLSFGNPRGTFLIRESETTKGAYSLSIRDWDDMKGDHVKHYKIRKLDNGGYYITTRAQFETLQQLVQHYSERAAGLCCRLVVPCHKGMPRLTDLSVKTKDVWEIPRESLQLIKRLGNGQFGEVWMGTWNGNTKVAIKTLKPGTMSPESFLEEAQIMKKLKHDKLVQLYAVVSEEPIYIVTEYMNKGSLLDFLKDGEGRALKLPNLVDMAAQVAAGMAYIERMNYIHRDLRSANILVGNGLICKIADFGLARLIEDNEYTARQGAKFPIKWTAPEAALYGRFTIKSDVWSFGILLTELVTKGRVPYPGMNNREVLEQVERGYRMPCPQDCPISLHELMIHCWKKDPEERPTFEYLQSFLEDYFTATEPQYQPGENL", "assay_type": "functional"}, "[31]": {"target": "Hepatocyte growth factor receptor (Homo sapiens, UniProt P08581)", "assay_type": "functional"}, "[32]": {"target": "Phosphorylase b kinase gamma catalytic chain, liver/testis isoform (Homo sapiens, UniProt P15735)", "sequence (P15735 whole entry, canonical isoform)": "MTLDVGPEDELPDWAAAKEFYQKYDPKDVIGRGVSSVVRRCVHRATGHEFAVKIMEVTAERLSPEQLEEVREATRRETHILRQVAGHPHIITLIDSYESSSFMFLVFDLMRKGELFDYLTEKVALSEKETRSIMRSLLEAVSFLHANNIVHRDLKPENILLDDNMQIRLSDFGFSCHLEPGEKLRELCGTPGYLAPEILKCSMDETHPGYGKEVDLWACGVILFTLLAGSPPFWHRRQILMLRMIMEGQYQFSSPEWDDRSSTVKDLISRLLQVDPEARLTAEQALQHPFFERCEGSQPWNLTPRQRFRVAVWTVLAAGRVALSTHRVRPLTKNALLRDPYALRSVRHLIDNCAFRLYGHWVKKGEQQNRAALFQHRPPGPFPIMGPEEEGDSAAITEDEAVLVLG", "assay_type": "functional"}, "[33]": {"target": "Serine/threonine-protein kinase pim-3 (Homo sapiens, UniProt Q86V86)", "assay_type": "functional"}},
  "note": "Activity calls are given as the source filed them.",
  "data": [
    {"smiles": "CCNc1nc(N)c(C(=O)c2ccc(Cl)s2)s1", "values": [
      {"measurement": "EC50", "setting": "[1]", "result": "0.19 µM (active)"},
      {"measurement": "AC50", "setting": "[2]", "result": "< 0.016 µM (active)"},
      {"measurement": "EC50", "setting": "[3]", "result": "0.238 µM (active)"},
      {"measurement": "EC50", "setting": "[4]", "result": "> 12 µM (not active)"},
      {"measurement": "EC50", "setting": "[5]", "result": "0.233 µM (active)"},
      {"measurement": "EC50", "setting": "[6]", "result": "1.21 µM (active)"},
      {"measurement": "EC50", "setting": "[7]", "result": "> 120 µM (not active)"},
      {"measurement": "AC50", "setting": "[8]", "result": "< 0.0218 µM (active)"},
      {"measurement": "AC50", "setting": "[9]", "result": "0.516 µM (active)"}
    ]},
    {"smiles": "COc1ccc(C2CC(C(F)(F)F)n3nc(C(=O)O)c(Cl)c3N2)cc1OC", "note": "(stereo not drawn)", "values": [
      {"measurement": "EC50", "setting": "[10]", "result": "> 54.7 µM (inactive)"},
      {"measurement": "IC50", "setting": "[11]", "result": "> 89.2 µM (inactive)"},
      {"measurement": "EC50", "setting": "[12]", "result": "> 54.7 µM (inactive)"},
      {"measurement": "EC50", "setting": "[13]", "result": "50.1 µM (inactive)"}
    ]},
    {"smiles": "CCCCSc1nnc(-c2cc3c(C(F)(F)F)nn(C)c3s2)n1C", "values": [
      {"measurement": "IC50", "setting": "[14]", "result": "51.6 µM (inactive)"},
      {"measurement": "IC50", "setting": "[15]", "result": "> 99 µM (inactive)"},
      {"measurement": "AC50", "setting": "[16]", "result": "20 µM (inconclusive)"},
      {"measurement": "AC50", "setting": "[17]", "result": "inconclusive"}
    ]},
    {"smiles": "CC1CCCCC1N(C(=O)c1cc(C2CC2)on1)C1CCCCCC1", "note": "(stereo not drawn)", "values": [
      {"measurement": "EC50", "setting": "[18]", "result": "> 50 µM (inactive)"},
      {"measurement": "EC50", "setting": "[19]", "result": "> 50 µM (inactive)"}
    ]},
    {"smiles": "Cc1cc(=O)[nH]nc1-c1ccc(NC(=O)Nc2cccc(Cl)c2)cc1", "values": [
      {"measurement": "Ki", "setting": "[20]", "result": "> 15.8 µM (inactive)"},
      {"measurement": "Ki", "setting": "[21]", "result": "> 6.31 µM (inactive)"},
      {"measurement": "Ki", "setting": "[22]", "result": "> 6.31 µM (inactive)"},
      {"measurement": "Ki", "setting": "[23]", "result": "0.631 µM (active)"},
      {"measurement": "Ki", "setting": "[24]", "result": "1.58 µM (active)"},
      {"measurement": "Ki", "setting": "[25]", "result": "3.16 µM (active)"},
      {"measurement": "Ki", "setting": "[26]", "result": "> 6.31 µM (inactive)"},
      {"measurement": "Ki", "setting": "[27]", "result": "> 7.94 µM (inactive)"},
      {"measurement": "Ki", "setting": "[28]", "result": "2 µM (active)"},
      {"measurement": "Ki", "setting": "[29]", "result": "2.51 µM (active)"},
      {"measurement": "Ki", "setting": "[30]", "result": "> 6.31 µM (inactive)"},
      {"measurement": "Ki", "setting": "[31]", "result": "0.631 µM (active)"}
    ]},
    {"smiles": "CCOC(=O)C1=c2sc(=Cc3cccs3)c(=O)n2C(N)=C(C#N)C1c1cccs1", "note": "(stereo not drawn)", "values": [
      {"measurement": "Ki", "setting": "[32]", "result": "5.01 µM (active)"},
      {"measurement": "Ki", "setting": "[33]", "result": "6.31 µM (active)"}
    ]}
  ]
}
